One assay relates to TNF-α. Briefly: Lung TNF-α mRNA, CLP mice. The assay is classed as in vivo, mouse. The note with it: 20 h; for lung TNF-α mRNA (Figure 6F): 10 mg/kg NDI, vs sham, individual mice. On the procedure:
Sepsis was induced in mice by cecal ligation and puncture (CLP) as described previously ([45], [46]). Mice were anesthetized with isoflurane to a surgical plane and placed in a supine position. CLP was performed through a midline laparotomy. The abdomen was shaved and disinfected. Through a 2 cm midline incision, the cecum was exposed and then ligated with a 4-0 silk suture 1 cm proximal from the distal cecal extremity. For 20-hour CLP experiments, the cecum was punctured twice with a 22-gauge needle. A small amount of cecal content was extruded through both holes, and the ligated cecum was returned to the peritoneal cavity. The wound was closed in layers. For 10-day sepsis survival studies, the cecum was punctured once with a 22-gauge needle. A small amount of cecal content was extruded. Mice were allocated to the vehicle and adoptive transfer of DLL4^+ neutrophils or DLL4^– neutrophils groups. Adoptive transfer mice received a retro-orbital injection of 1 × 10^6 cells per mouse DLL4^+ neutrophils or DLL4^– neutrophils in […] phosphate-buffered saline (PBS) immediately after abdominal closure in both the 20-hour experiments and the survival study. Vehicle groups received an equivalent volume of PBS, while treatment groups received NDI 10 mg/kg in […] PBS via retro-orbital injection after CLP. This dose was chosen primarily on the basis of our laboratory’s prior experience, we have consistently used this dose in mouse CLP models with reproducible efficacy and without observable toxicity ([39], [44]). Sham-operated animals underwent a laparotomy without CLP. After closure, the mice received a subcutaneous injection of 0.5 mL of normal saline to overcome surgery-induced dehydration. For 20-hour experiments, animals were not injected with antibiotics; however, for survival studies, animals were given 0.5 mg per kg body weight imipenem (lot 4D21K05, WG Critical Care LLC) subcutaneously in 0.5 mL saline once at the end of CLP. All mice were subcutaneously injected with a single dose of 0.1 mg/kg buprenorphine after CLP. […]

Assay [1] deals with DLL4 expression on TLR4^–/– BMDNs. Briefly: Frequency of DLL4^+ neutrophils, TLR4^–/– mouse BMDNs, flow cytometry. The assay is classed as cell-based. The following applies: 12 h. The method, then: Male 8-week-old C57BL/6 mice were purchased from Charles River Laboratories. TLR4^–/– mice were obtained from Kevin Tracey (Feinstein Institutes for Medical Research). Mice were housed at approximately 23°C with a 12-hour light/12-hour dark cycle and given standard laboratory food and water ad libitum. All experiments were performed following the NIH guidelines for experimental animals. The animal protocol was approved by the Feinstein Institutes’ Institutional Animal Care and Use Committee. Animals were randomly assigned to the sham, vehicle, or adoptive transfer groups.
Mice were anesthetized by 2% isoflurane inhalation, and the femora and tibiae were dissected. […] The purity of the sorted neutrophils was assessed by staining of the cells with APC-Ly6G antibody (clone 1A8, BioLegend) using a BD LSRFortessa flow cytometer (BD Biosciences).
In the time course experiments, BMDNs (1 × 10^6) were stimulated with eCIRP (1 μg/mL) for 2, 4, 6, and 12 hours. […] Single-cell suspensions were then stained with APC-conjugated anti–mouse Ly6G (clone 1A8, catalog 127614, BioLegend) and PE-conjugated anti-DLL4 (clone HMD4-1, catalog 130807, BioLegend), and analyzed by flow cytometry (BD LSRFortessa, BD Biosciences) to detect DLL4^+ neutrophils (Ly6G^+DLL4^+). […] The isolated lung cells were counted using a microscope (Eclipse TS100, Nikon). […]

Several values for one entry are separate records, joined by “and”; a condition that tells them apart may be missing. Identical values can stand only once.

For ECAGSPCHNGGTCEDGI [NDI], in the assay with TNF-α (DLL4^+ neutrophil-injected CLP mice, 10 mg/kg), the “effect on lung TNF-α mRNA” value was “significantly decreased the mRNA expression of TNF-α, IL-6, and KC in lung tissues”. The “lung TNF-α mRNA (Figure 6F)” value with TNF-α (DLL4^+ neutrophils + CLP) was 4.255 fold change and 2.291 fold change and 5.674 fold change and 4.568 fold change and 3.143 fold change and 2.408 fold change and 0.5968 fold change and 4.125 fold change and 0.8652 fold change and 4.064 fold change and 0.4766 fold change and 9.1932 fold change and 5.227 fold change and 8.424 fold change; with TNF-α (DLL4^– neutrophils + CLP) it was 8.678 fold change and 9.157 fold change and 5.574 fold change and 9.371 fold change and 6.524 fold change and 4.342 fold change and 3.267 fold change and 5.109 fold change and 7.731 fold change.

B1: eCIRP: extracellular cold-inducible RNA-binding protein; recombinant murine, produced in our laboratory (protein, UniProt P60824 1-172, looked up)
Cold-inducible RNA-binding …: MASDEGKLFVGGLSFDTNEQALEQVFSKYGQISEVVVVKDRETQRSRGFGFVTFENIDDAKDAMMAMNGKSVDGRQIRVDQAGKSSDNRSRGYRGGSAGGRGFFRGGRSRGRGFSRGGGDRGYGGGRFESRSGGYGGSRDYYASRSQGGSYGYRSSGGSYRDSYDSYATHNE
As for B1, the “frequency of DLL4^+ neutrophils (Figure 1E)” value in assay [1] (TLR4^–/– (KO) BMDNs, 1 μg/mL eCIRP, individual replicates) is 1.63% and 1.97% and 2.11% and 0.98% and 0.25% and 1.21%. Besides, the “eCIRP-mediated induction of DLL4^+ neutrophils” value in assay [1] (TLR4^–/– neutrophils, 1 μg/mL) is on record as “significantly abrogated in TLR4^–/– neutrophils”.

The values are drawn from PMC12700550, “DLL4^+ neutrophils promote Notch1-mediated endothelial PANoptosis to exacerbate acute lung injury in sepsis” (The Journal of Clinical Investigation, 2025).
